Measured values published in patent US7960407B2, “Crystal forms of an imidazole derivative” (Requalia Pharma Inc., priority 2006, dated 2011).

Tests used:
[1] = solid-state stability of the crystal forms; format: physicochemical; settings: qualitative comparison of the forms identified
[2] = hygroscopicity of the crystal form; format: physicochemical; settings: solid form, qualitative

| stability of the crystal form [1] | Structure (SMILES) | other results |
| --- | --- | --- |
| most stable | CCc1nc2c(C)nc(C)cc2n1-c1ccc(CCNC(=O)NS(=O)(=O)c2ccc(C)cc2)cc1 [Polymorph Form A, N-[({2-[4-(2-Ethyl-4,6-dimethyl-1H-imidazo[4,5-c]pyridin-1-yl)phenyl]ethyl}amino)carbonyl]-4-methylbenzenesulfonamide] | hygroscopicity [2]: non-hygroscopic |
| stable | CCc1nc2c(C)nc(C)cc2n1-c1ccc(CCNC(=O)NS(=O)(=O)c2ccc(C)cc2)cc1 [Polymorph Form B, N-[({2-[4-(2-Ethyl-4,6-dimethyl-1H-imidazo[4,5-c]pyridin-1-yl)phenyl]ethyl}amino)carbonyl]-4-methylbenzenesulfonamide] | – |

Continued, compound first:

| Structure (SMILES) | stability of the crystal form [1] | other results |
| --- | --- | --- |
| CCc1nc2c(C)nc(C)cc2n1-c1ccc(CCNC(=O)NS(=O)(=O)c2ccc(C)cc2)cc1 [Crystal Form C, N-[({2-[4-(2-Ethyl-4,6-dimethyl-1H-imidazo[4,5-c]pyridin-1-yl)phenyl]ethyl}amino)carbonyl]-4-methylbenzenesulfonamide] | less stable | stability of the crystal form ([1]; listed as C): (metastable) |
| CCc1nc2c(C)nc(C)cc2n1-c1ccc(CCNC(=O)NS(=O)(=O)c2ccc(C)cc2)cc1 [Crystal Form D, N-[({2-[4-(2-Ethyl-4,6-dimethyl-1H-imidazo[4,5-c]pyridin-1-yl)phenyl]ethyl}amino)carbonyl]-4-methylbenzenesulfonamide] | less stable | – |
| CCc1nc2c(C)nc(C)cc2n1-c1ccc(CCNC(=O)NS(=O)(=O)c2ccc(C)cc2)cc1 [Crystal Form G, N-[({2-[4-(2-Ethyl-4,6-dimethyl-1H-imidazo[4,5-c]pyridin-1-yl)phenyl]ethyl}amino)carbonyl]-4-methylbenzenesulfonamide] | less stable | – |
| CCc1nc2c(C)nc(C)cc2n1-c1ccc(CCNC(=O)NS(=O)(=O)c2ccc(C)cc2)cc1 [Example 2, 2-ETHYL-4,6-DI METHYL-1-(4-{2-[({[(4-METHYLPHENYL)SULFONYL]AMINO}CARBONYL)AMINO]ETHYL}PHENYL)-1H-IMIDAZO[4,5-c]PYRIDINE, reference compound] | – | stability of the crystal form ([1]; listed as N-[({2-[4-(2-Ethyl-4,6-dimethyl-1H-imidazo[4,5-c]pyridin-1-yl)phenyl]ethyl}amino): unstable |
